Common to all, as to type: cell-based
Experiment [1] deals with human blood platelets. In words: In vitro inhibition of ADP-induced human platelet aggregation (platelet-rich plasma, aggregometer). The note with it: Homo sapiens, Platelet. How it is done: Procedure for Determining In Vitro Platelet Aggregation-Inhibitory Activity. Adenosine diphosphate (ADP) was used to induce platelet aggregation and was utilized as the sodium salt. A 10 mM stock solution was prepared fresh before each use in modified Tyrode's buffer and working dilutions were prepared with modified Tyrode's buffer immediately prior to use. The buffer contained NaCl (137.00 mM), KCl (2.70 mM), NaHCO3 (11.90 mM), NaH2 PO4 H2 O (0.36 mM) and glucose (5.60 mM) in redistilled water. Adjustment to pH 7.4 was effected by addition of 1N HCl.
The blood was transferred into plastic centrifuge tubes containing 3.2% sodium citrate (blood/citrate ratio 8:1) and centrifuged at 120Xg for 15 minutes at 23° C., yielding platelet-rich plasma (PRP); platelet-poor-plasma (PPP) was obtained by centrifugation of citrated whole blood at 1,100Xg for 15 min at 23° C. The platelet count of PRP was determined and adjusted to a final count of 300,000 platelet per mm^3 by dilution with autologous PPP. […] The plasma so obtained was transferred using a 1.0 ml Centaur pipette into a 50 ml polyethylene centrifuge tube. In order to maintain plasma pH in the appropriate range, the air in the tubes are displaced gently (2 minutes) with a 5% (CO2 -95% air (v/v) mixture and the tube capped. The plasma was maintained at 37° C. in a water bath until used in the aggregation experiments.
Assays of platelet aggregation were performed at least in duplicate, using plasma acquired from different donors, employing a method developed by Quintana, et al. (Quintana, et al., Relationships Between the Chemical Constitution of Carbamoylpiperidines and Related Compounds, and Their Inhibition of ADP-Induced Human Blood Platelet Aggregation, Thromb. Res. Vol. 22, Pages 665-680, 1981); Quintana, et al., Effects of Ethanol and of Other Factors on ADP-Induced Aggregation of Human Blood Platelets in Vitro, Thromb. Res., Vol. 20, Pages 405-415, 1980) (cf. Born, Nature, Vol. 194, Pages 927-929, 1962) and Mustard, et al., J. Lab. Clin. Med., Vol. 64, Pages 548-559, 1964).
Initially, in each experiment, 0.45-ml aliquots of PRP were placed in siliconized cuvettes and stirred (1,100 rpm) in the aggregometer at 37° C. to ascertain the absence of spontaneous aggregation. Appropriate ADP solutions (50 μl) were subsequently injected using a Hamilton microliter syringe to determine the minimal concentration eliciting maximal biphasic aggregation. […] In each case, the concentration of ADP so determined was used in eliciting aggregation throughout each specific set of aggregometric evaluations.
0.5 μl of a solution of the evaluant compound in redistilled 95% ethanol was injected into a stirred ([…]) 0.4-ml aliquot of plasma in a siliconized cuvette in the aggregometer-well (37° C). After 15 seconds, the cuvette was transferred to an incubator (also at 37° C.) and the contents held at this temperature, without stirring, until 2 minutes postinjection. The cuvette was then returned to the aggregometer-well, a base-line being recorded for 2 minutes to detect any spontaneous aggregation. At exactly 4 minutes after injection of the evaluant solution, 50 μl of the appropriate ADP solution was injected and aggregation recorded for 5.5 minutes. Evaluants were studied at least 4 different concentrations. Control experiments (ethanol in a final concentration of 0.095% v/v) were performed in conditions parallel with those involving the respective evaluants, and were initiated either 1 minute prior to or 1 minute after the start of experiments employing the test compounds. This permitted injections to be made precisely at the specified times.

Experiment [2] concerns human platelets. Description: Inhibition of collagen-induced aggregation, washed aequorin-loaded platelet suspension. The following applies: Homo sapiens, Platelet; collagen-induced aggregation (n = 4); HEPES-buffered saline, 1.0 mM CaCl2; read-out: Ia50 ± S.E. Collagen-induced. How it is done: (§1) Procedure for Cytosolic Ionized Calcium Determination. The basic procedure of Yamaguchi, et al. (Thromb. Res., Vol. 44, Pages 165-174, 1986) was followed. Blood was collected from six blood donors, aged 24-38 years, who had fasted overnight and affirmed abstinence from alcohol, caffeine and medications of any kind for a period of at least one week prior to donation. […] Platelets were collected (800 g, 15 min), resuspended in and washed (800 g, 15 min) with HEPES-buffered saline (140 mM NaCl, 2.7 mM KCl, 0.1% bovine albumin, 0.5% glucose, 3.8 mM HEPES, pH 7.6) with EGTA (5 mM) and PGE1 (1 μM). The platelet pellet was resuspended in 90 μl of the same buffer and added to 20μl of 3 mg/ml aequorin solution in a 1.5 ml Eppendorf centrifuge tube. Six 1 μl aliquots of DMSO were added at 90 second intervals with brief, gentle mixing on a Vortex mixer and the platelet suspension was incubated 2 minutes after the last addition. One ml of HEPES-buffered saline was added, gently mixed, and again incubated for 2 minutes. The platelets were pelleted (1000 g, 30 sec), resuspended in HEPES-buffered saline to which was added either 1 mM Mg Cl2, (calcium-free buffer) or 1 mM Mg Cl2 and 1 mM Ca Cl2 (calcium buffer), depending on the experiment. The platelet count was adjusted to 3-4×10^5 platelets/μl.
(§2) The Platelet Ionized Calcium Aggregometer (Chrono-Log Corp., Ltd., Havertown, Pa.) was used to obtain simultaneous aggregation and luminescence data under the following experimental conditions: (1) platelet suspension, 1 ml, was equilibrated at 37° C. with stirring at 1100 rpm; (2) 100 μl (1.2 μg) of fibrinogen was added; (3) the vehicle (95% ethanol) or the test compound in vehicle was added; (4) when needed, 10 μl of the desired concentration of EGTA was added 30 seconds prior to addition of the agonist; then (5) the agonist (Collagen, 5 μg or 20 μg) was added and the time noted. At one minute after addition of the agonist in Channel 1, a platelet sample containing fibrinogen in Channel 2 was lysed with 10 μl of a 1:1 solution of Triton X-100 (final concentration 0.005%) 10 mM CaCl2 (final concentration 0.5 mM). Treated and control […] data were corrected for time dependent decay of fluorescence using data from the untreated lysed controls.
(§3) Normally 4 compound-treated samples (at 4 different concentrations) interspersed with 3 control samples were evaluated at 4.5 minute intervals starting 18-23 minutes after the DMSO treatment. The Ia50 values were calculated as described earlier. The compound concentrations effecting 50% inhibition (Ica50) of collagen-induced cytosolic ionized calcium values was determined by linear regression analysis.
Compounds I-rac, (+)-I,(IC) and (-)-I(IA) were evaluated. The Ia50 (collagen-induced aggregation) and Ica50 (compound concentration required to inhibit by 50% the collagen-induced rise in cytosolic ionized calcium)values determined with platelet suspensions in HEPES-buffered saline containing 1.0 mM CaCl2 were as follows: […]

Experiment [3] deals with cytosolic ionized calcium in human platelets. In words: Inhibition of collagen-induced rise in cytosolic ionized calcium (aequorin luminescence). The note with it: Homo sapiens, Platelet, collagen-induced, 1mM [Ca2+]o (n = 4); read-out: Ica50 ± S.E. Collagen-induced (50% inhibition of collagen-induced rise in cytosolic ionized calcium). The procedure:
as §1, §2, §3
Compounds I-rac, (+)-I,(IC) and (-)-I(IA) were evaluated. The Ia50 (collagen-induced aggregation) and Ica50 (compound concentration required to inhibit by 50% the collagen-induced rise in cytosolic ionized calcium)values determined with platelet suspensions in HEPES-buffered saline containing 1.0 mM CaCl2 were as follows:
Collagen-stimulation of platelets suspended in media containing 1.0 mM of Ca^2+ (FIG. 13) or 1.0 mM (FIG. 14A) or 2.0 mM (FIG. 14B) EGTA (a calcium chelator) gave […] cytosolic ionized calcium peak (aequorin-indicated luminescence). Contrarily, two phases of Ca^2+ mobilization were observed when aequorin-loaded human platelets suspended in a medium containing 0.1 mM EGTA were stimulated with collagen (FIG. 14, designation D). The first corresponded to platelet shape change and the second peak to aggregation. […] The platelet suspension (1.0 ml) was pre-incubated with 1.0 μl of (A) 95% ethanol, (B) a solution of Compound I (14.59 μM) in 95% ethanol, or (C) a solution of Compound I (23.87 μM) in 95% ethanol. Collagen (20 μg) was added at time indicated by the arrows. Luminescence was again recorded at a gain of 0.5. […] Accordingly, the stereo-selective inhibitory properties of the compounds of the present invention appear to be mediated through the inhibition of [Ca^2+ ].

Structures are written as SMILES. Read-outs that look alike come from different tables or passages of the source.

As to `CCN(CC)C(=O)[C@@H]1CCCN(Cc2ccc(CN3CCC[C@H](C(=O)N(CC)CC)C3)cc2)C1` [IB], the IC50 was found to be 41.4 ± 11.8 µM in experiment [1] (read-out: Ia50 (compound concentrations affecting 50% inhibition of aggregation) ± S.E., Table II, ADP-induced, n = 5 for (0)I and 6 for all others); 41.4 µM in experiment [1] (read-out: Ia50 ± S.E. ADP-Induced, table 3, ADP-induced (n = 5-6)); 65.7 µM in experiment [2]; 24.3 µM in experiment [3].

Source of the values: patent publication US5219867A, “Platelet aggregation inhibitory agents” (priority 1992, dated 1993).
